{"source": "patent US20250199015A1", "about": "“CYCLIN-DEPENDENT KINASE 2 INHIBITORS FOR MEDICAL TREATMENT” (INCYCLIX BIO, LLC, priority 2022, published 2025)", "key": {"[1]": {"experiment": "Salt screen storage at 40° C./75% RH, XRPD form", "assay_type": "physicochemical", "conditions": "ca. 24 hours", "description": "XRPD analysis was carried out on any isolated solids or gums as described in Example 10 below. The XRPD plate, and the isolated solids, were dried at 40° C. for ca. 24 hours and re-analyzed by XRPD. The XRPD plate was further dried at 40° C./75% RH for ca. 24 hours and XRPD analysis was repeated.\nAfter three days, observations were recorded and solids were isolated by centrifugation. The wet solids were analyzed by XRPD. Solids were dried at 40° C. under vacuum for 72 hours and re-analyzed by XRPD. Solids were dried at 40° C./75% RH for 18 hours and re-analyzed by XRPD."}, "[2]": {"system": "T47D human breast carcinoma cells", "experiment": "Crystal violet colony assay", "assay_type": "cell-based", "conditions": "300 nM, weeks 2-8", "description": "(§1) The T47D human breast carcinoma cell line was grown in RPMI-1640/1× Glutamax/1× Insulin/10% fetal bovine serum and was plated at 10,000 cells/well in Corning 6-well tissue culture treated plates. Cells were incubated at 37° C. for 24 hours prior to addition of treatment. […] Plates were collected at week 2 and 3, at week 3, 2 plates with only palbociclib were switched to combination treatment. The remaining plates were collected at weeks 5 and 8. Collection was performed by washing wells with PBS before incubating 5 minutes with 0.1% crystal violet/20% methanol. Dye was removed and wells washed 4 times with PBS before being scanned at 1200 dpi. Image J was used to count the % area and colony size for each well (FIG. 8F-I). GraphPad Prism was used for analysis. Cells treated with DMSO control retained large colonies that inhabited the majority of the well surface area from week 3 beyond (FIG. 8F).\nas §1, with “6 well tissue culture treated plates. The BT474 human breast carcinoma cell line was grown in DMEM/1× Glutamax/1× Insulin/10% fetal bovine serum and was plated at 25,000 cells/well in Corning 6 well” for “6-well”, “CDK4/6i” for “palbociclib”, “well. Graph pad” for “well (FIG. 8F-I). GraphPad Prism”, “analysis.” for “analysis. Cells treated with DMSO control retained large colonies that inhabited the majority of the well surface area from week 3 beyond (FIG. 8F).”\nThe T47D human breast carcinoma cell line was grown in RPMI-1640/1× Glutamax/1× Insulin/10% fetal bovine serum and was plated at 10,000 cells/well in Corning 6 well tissue culture treated plates. Cells were incubated at 37° C. for 24 hours prior to addition of treatment. […] Plates were collected at weeks 2 and 3. Collection was performed by washing wells with PBS before incubating 5 minutes with 0.1% crystal violet/20% methanol. Dye was removed and wells washed 4 times with PBS before being scanned at 1200 dpi. Image J was used to count the percent area and colony size for each well and Graph pad was used for analysis."}, "SHP77 cells": {"system": "SHP77 cells", "experiment": "CellTiter Glo cell proliferation assay (single agent and chemotherapy combination)", "assay_type": "cell-based, human", "conditions": "6 days", "description": "(§2) Plates returned to incubator for six additional days. On day six post dosing, plates were removed and treated with CellTiter Glo reagent following manufacturer's specifications. Plates incubated 45 minutes at room temperature and run on a Biotek luminometer with 1 sec/well detection. Results were converted to Microsoft Excel and transferred to GraphPad Prism for analysis.\n(§3) Dose curves ranged from 300 pM to 10 μM in triplicate and treatments lasted for 6 days. Plates were removed from incubator at each specified timepoint and treated with CellTiter-Glo (Promega, Inc) following manufacturer specifications. Plates were then read on CLARIOstar luminometer with 1 sec/well integration.\nas §3, with “integration. Results were converted to Microsoft Excel and transferred to GraphPad Prism for Analysis.” for “integration.”"}, "H69 (NCIH69) cells": {"system": "H69 (NCIH69) cells", "experiment": "CellTiter Glo cell proliferation assay (single agent and chemotherapy combination)", "assay_type": "cell-based, human", "conditions": "6 days", "description": "as §2, §3\nas §3, with “integration. Results were converted to Microsoft Excel and transferred to GraphPad Prism for Analysis.” for “integration.”"}, "H526 cells": {"system": "H526 cells", "experiment": "CellTiter Glo cell proliferation assay (single agent and chemotherapy combination)", "assay_type": "cell-based, human", "conditions": "6 days", "description": "as §2\nCells were plated at 250 cells per well in white wall/clear bottom plates and incubated overnight. […] Plates returned to the incubator for six additional days. On day six post dosing, plates were removed and treated with CellTiter Glo reagent following manufacturer's specifications. Plates incubated 45 minutes at room temperature and run on a Biotek luminometer with 1 sec/well detection. Results were converted to Microsoft Excel and transferred to GraphPad Prism for analysis.\nas §3\nas §3, with “integration. Results were converted to Microsoft Excel and transferred to GraphPad Prism for Analysis.” for “integration.”"}, "[3]": {"system": "T47D parental and therapy-resistant cells", "experiment": "Cell cycle by BrdU flow cytometry in therapy-resistant cells", "assay_type": "cell-based, human", "description": "The therapy resistant cells were previously incubated with abemaciclib, fulvestrant, and/or palbociclib for prolonged periods to the point of developing drug resistance. Cells were plated in Corning 6 well tissue culture treated plates. Cells were treated for 7 days. Media was spiked with 10 μM BrdU prior to collection. Cells were washed in PBS, trypsinized, collected and centrifuged at 300 RCF for 5 mins. Cells were resuspended in cell culture media and transferred into a 96 well V-bottom plate with roughly 300,000 cells per well. Cells were then stained using the Near-IR Fixable Viability Stain (Invitrogen Cat. L34976) for 20 mins at room temperature, protected from light. Cells were fixed and permeabilized using eBioscience FoxP3/Transcription Factor Staining Buffer Set (Cat. 00-5523-00). DNA was denatured using 2N HCl+0.5% (v/v) Triton X-100 for 30 mins room temperature, agitating every 5-10 mins. The acid was neutralized using 0.1M Na2B4O7·10H2O (pH 8.5) followed by 0.5% BSA in PBS. Cells were then stained with BrdU antibody (Clone 3D4, BioLegend Cat. 364118) for 1 hour at room temperature. Prior to acquisition on the BD A3 Symphony, DNA was stained for 30 minutes using FxCycle Violet ReadyFlow Reagent.\nCell staining was then conducted to monitor cellular proliferation and perform cell cycle analysis of these therapy-resistant cells. […] Similarly, abemaciclib- and fulvestrant-resistant (LYFR) cells administered abemaciclib and fulvestrant were not substantially arrested in the G1 phase (FIG. 147H)."}}, "note": "Marks after values point to notes of the source that are not given here."}
{"smiles": "CS(=O)(=O)O.NS(=O)(=O)c1ccc(Nc2ncc3cc4n(c3n2)C2(CCCCC2)C(=O)NN4)cc1", "note": "[mesylate Pattern 4]", "values": [{"measurement": "XRPD form after storage at 40° C./75% RH", "setting": "[1]", "result": "converted to Pattern 1"}]}
{"smiles": "NS(=O)(=O)c1ccc(Nc2ncc3cc4n(c3n2)C2(CCCCC2)C(=O)NN4)cc1.O=S(=O)(O)c1ccccc1", "note": "[besylate Pattern 3]", "values": [{"measurement": "XRPD form after storage at 40° C./75% RH", "setting": "[1]", "result": "loss in crystallinity"}]}
{"smiles": "Br.NS(=O)(=O)c1ccc(Nc2ncc3cc4n(c3n2)C2(CCCCC2)C(=O)NN4)cc1", "note": "[HBr Pattern 1]", "values": [{"measurement": "XRPD form after storage at 40° C./75% RH", "setting": "[1]", "result": "loss of crystallinity"}]}
{"smiles": "NS(=O)(=O)c1ccc(Nc2ncc3cc4n(c3n2)C2(CCCCC2)C(=O)NN4)cc1.O=C(O)CC(O)(CC(=O)O)C(=O)O", "note": "[citrate Pattern 1]", "values": [{"measurement": "XRPD form after storage at 40° C./75% RH", "setting": "[1]; listed as Citric Acid Salt Pattern 1", "result": "poorly crystalline material"}]}
{"smiles": "CC(=O)c1c(C)c2cnc(Nc3ccc(N4CCNCC4)cn3)nc2n(C2CCCC2)c1=O", "note": "[palbociclib, reference compound]", "values": [{"measurement": "colony size and percent plate area", "setting": "[2]", "result": "cells expanded to cover a large percentage of the plate area"}]}
{"smiles": "CS(=O)(=O)O.NS(=O)(=O)c1ccc(Nc2ncc3cc4n(c3n2)C2(CCCCC2)C(=O)NN4)cc1", "note": "[mesylate Pattern 3]", "values": [{"measurement": "XRPD form after storage at 40° C./75% RH", "setting": "[1]", "result": "converted to Pattern 1"}]}
{"smiles": "NS(=O)(=O)c1ccc(Nc2ncc3cc4n(c3n2)C2(CCCCC2)C(=O)NN4)cc1.O=P(O)(O)O", "note": "[phosphate Pattern 6]", "values": [{"measurement": "XRPD form after storage at 40° C./75% RH", "setting": "[1]", "result": "formation of amorphous material"}, {"measurement": "XRPD form after storage at 40° C./75% RH", "setting": "[1]; listed as Phosphoric Acid Salt Pattern 6", "result": "amorphous material"}]}
{"smiles": "CC[C@@]1(O)C(=O)OCc2c1cc1n(c2=O)Cc2cc3ccccc3nc2-1", "note": "[camptothecin, (S)-4-ethyl-4-hydroxy-1H-pyrano[3′,4′:6,7]indolizino[1,2-b]quinoline-3,14-(4H, 12H)-dione, reference compound]", "values": [{"measurement": "cellular proliferation, chemotherapeutic alone compared with Compound I alone", "setting": "SHP77 cells", "result": "lower cellular proliferation IC50 values"}, {"measurement": "cellular proliferation, chemotherapeutic alone compared with Compound I alone", "setting": "H69 (NCIH69) cells", "result": "lower cellular proliferation IC50 values"}, {"measurement": "cellular proliferation, chemotherapeutic alone compared with Compound I alone", "setting": "H526 cells", "result": "lower cellular proliferation IC50 values"}]}
{"smiles": "CCN1CCN(Cc2ccc(Nc3ncc(F)c(-c4cc(F)c5nc(C)n(C(C)C)c5c4)n3)nc2)CC1", "note": "[abemaciclib, reference compound]", "values": [{"measurement": "cell cycle arrest", "setting": "[3]; abemaciclib-resistant (LYR) cells", "result": "substantially less frequently in the G1 phase"}, {"measurement": "cell cycle arrest", "setting": "[3]; parental (PAR) cells", "result": "arrested parental (PAR) cell lines in the G1 phase"}]}
{"smiles": "COc1cccc2c1C(=O)c1c(O)c3c(c(O)c1C2=O)C[C@@](O)(C(=O)CO)C[C@@H]3O[C@H]1C[C@H](N)[C@H](O)[C@H](C)O1", "note": "[doxorubicin, reference compound]", "values": [{"measurement": "cellular proliferation, chemotherapeutic alone compared with Compound I alone", "setting": "SHP77 cells", "result": "better inhibition"}, {"measurement": "cellular proliferation, chemotherapeutic alone compared with Compound I alone", "setting": "H69 (NCIH69) cells", "result": "better inhibition"}, {"measurement": "cellular proliferation, chemotherapeutic alone compared with Compound I alone", "setting": "H526 cells", "result": "better inhibition"}]}
{"smiles": "NS(=O)(=O)c1ccc(Nc2ncc3cc4n(c3n2)C2(CCCCC2)C(=O)NN4)cc1.O=C(O)/C=C\\C(=O)O", "note": "[maleate Pattern 5]", "values": [{"measurement": "XRPD form after storage at 40° C./75% RH", "setting": "[1]; listed as Maleic Acid Salt Pattern 5", "result": "converted to Pattern 1*"}]}
{"smiles": "NS(=O)(=O)c1ccc(Nc2ncc3cc4n(c3n2)C2(CCCCC2)C(=O)NN4)cc1.O=C(O)/C=C\\C(=O)O", "note": "[maleate Pattern 4]", "values": [{"measurement": "XRPD form after storage at 40° C./75% RH", "setting": "[1]; listed as Maleic Acid Salt Pattern 4", "result": "converted to Pattern 6"}]}
{"smiles": "NS(=O)(=O)c1ccc(Nc2ncc3cc4n(c3n2)C2(CCCCC2)C(=O)NN4)cc1.O=C(O)/C=C\\C(=O)O", "note": "[maleate Pattern 2]", "values": [{"measurement": "XRPD form after storage at 40° C./75% RH", "setting": "[1]; listed as Maleic Acid Salt Pattern 2", "result": "loss of crystallinity"}]}
{"smiles": "NS(=O)(=O)c1ccc(Nc2ncc3cc4n(c3n2)C2(CCCCC2)C(=O)NN4)cc1.O=C(O)CC(O)(CC(=O)O)C(=O)O", "note": "[citrate Pattern 2]", "values": [{"measurement": "XRPD form after storage at 40° C./75% RH", "setting": "[1]; listed as Citric Acid Salt Pattern 2", "result": "new poorly crystalline pattern designated Pattern 4"}]}
{"smiles": "Cl.NS(=O)(=O)c1ccc(Nc2ncc3cc4n(c3n2)C2(CCCCC2)C(=O)NN4)cc1", "note": "[HCl Pattern 2]", "values": [{"measurement": "XRPD form after storage at 40° C./75% RH", "setting": "[1]", "result": "No form changes were observed"}]}
{"smiles": "CS(=O)(=O)O.NS(=O)(=O)c1ccc(Nc2ncc3cc4n(c3n2)C2(CCCCC2)C(=O)NN4)cc1", "note": "[mesylate Pattern 2]", "values": [{"measurement": "XRPD form after storage at 40° C./75% RH", "setting": "[1]", "result": "converted to Pattern 1"}]}
